Assay results from publication PMC12045974, “T cell toxicity induced by tigecycline binding to the mitochondrial ribosome” (Nature Communications, 2025).
Values joined by “and” are separate entries in the source; they are usually repeats but may differ in a detail not shown here. Identical values can stand only once.

Columns and labels:
CD4+ and CD8+ T cells [1] = experiment: Mitochondrial mass by MitoTracker Green staining; assay type: cell-based, human; conditions: for mitochondrial mass (MitoTracker Green): 10 μM, after 24 h or 7 days of treatment
Description: (§1) After thawing frozen PBMCs, cells were washed with RPMI complemented with 10% FBS, 2.05 mM L-glutamine (Sigma), and 55 μM 2-ME (Gibco) and rested at 37 °C (5% CO2) for 30 min. 250,000 cells per well were seeded in 96-well U-bottom plates with/without Human T-Activator CD3/CD28 beads (Invitrogen) at a 1:1 ratio and 10 ng/ml IL-2 (Proteintech) in RPMI-1640 medium mentioned above. At the same time, antibiotics were added. For the short-term activation assay, cells were harvested 18 h post-stimulation and stained with Aqua fixable live/dead dye (Invitrogen) and surface markers. For the proliferation assays, cells were stained with CFSE (eBioscience) or Cell Trace Violet (ThermoFisher Scientific) dyes before seeding and stimulation, according to the manufacturer’s recommendations. For TCR priming experiments, tigecycline was added at 0, 24 or 72 h post-activation. For mitochondrial mass measuring, cells were stained with Mitotracker Green Fm Dye (Thermo Fisher Scientific) after incubation with Tigecycline. After incubation for 6 days with a half medium (complete, with antibiotics and IL-2) change after 3 days, cells were harvested via centrifugation, and stained with live/dead dye and surface markers for analysis by flow cytometry. The Foxp3/Transcription Factor Staining Buffer Set (Invitrogen) was used to fix cells according to the manufacturer’s instructions. The FACS gating strategy is shown in Supplementary Fig. 2D. Flow cytometry was carried out on a BD Celesta (BD Biosciences) and analyzed in FlowJo (TreeStar) software.

OXPHOS complexes = experiment: Western blotting for OXPHOS complexes in Jurkat T cells and PBMCs; assay type: cell-based; conditions: Jurkat T cells and human PBMCs, 5 μM, 6 days
Description: Human PBMCs and Jurkat T cells were seeded in 6-well plates at a density of 1 million cells/ml and incubated with or without antibiotics in RPMI-1640 medium (with 10% FBS, 2.05 mM L-glutamine (Sigma), and 55 μM 2-ME (Gibco)) for 6 days. After centrifugation, cells were lysed in RIPA buffer containing protease and phosphatase inhibitors (cOmplete and PhosSTOP, respectively, Roche). Protein concentrations were determined by BCA (Pierce, Thermo Fisher). Protein samples were resuspended with 1× NuPAGE LDS sample buffer (Thermo Fisher) supplemented with 100 mM dithiothreitol, heated for 10 min at 75 °C, and separated on NuPAGE 4–12% Bis-Tris mini gels (Thermo Fisher) using NuPAGE 1× MES (Thermo Fisher) running buffer, and transferred to PVDF membranes (0.45 μm, Immobilon-P, Sigma) using the iBlot2 system (Invitrogen). Non-specific binding was blocked with TBST containing 5% non-fat milk, followed by overnight incubation at 4 °C with antibodies against Total OXPHOS Human WB Antibody Cocktail (Abcam, Cambridge, UK), followed by HRP-conjugated secondary antibodies for 1 h at room temperature. β-actin, HSP60, and GAPDH (Cell Signaling Technology) were used as loading control. Proteins were detected using Clarity Western ECL Substrate (Bio-Rad, 170-5061). For an example of presentation of full scan blots, see the Source Data file.

PBMCs = experiment: Extracellular metabolic flux assay (Seahorse Mito Stress Test, OCR and ECAR); assay type: cell-based, human; conditions: for glycolysis rates: vs untreated stimulated controls; for ATP coupled OCR / Basal OCR / Maximal OCR / Spare capacity OCR: PBMC, per donor
Description: The Seahorse XFe96 Analyzer (Seahorse Bioscience) was used to measure oxygen consumption rate (OCR) and extracellular acidification rate (ECAR) in human PBMCs. 1.5 × 10^6 cells/well were seeded in 24-well plates and stimulated using plate-bound anti-CD3 antibody (2 μg/ml, clone OKT3, BD Biosciences), soluble anti-CD28 antibody (0.5 μg/ml, clone CD28.2, Biolegend) and IL-2 (10 ng/ml, Proteintech) in RPMI-1640 (with 10% FBS, 2.05 mM L-glutamine (Sigma), and 55 μM 2-ME (Gibco)). Cells were treated with or without 5 and 10 µM Tigecycline for 6 days with a half medium change after 3 days. After treatment, cells were washed with Seahorse XF RPMI assay medium, and then 200,000 cells per well were seeded (in triplicate) in 40 μl assay medium in XF 96-well cell culture microplate coated with poly-D-lysine (Sigma). The plate was centrifuged at 300 g for 5 s with no brake, rotated 180 °, and centrifuged again for 5 s at 300 x g. After centrifugation, 140 μl of assay medium was added per well and the plate was left to stabilize in a 37 °C, non-CO2 incubator for 40 min. During seahorse, wells were sequentially injected with compounds to achieve final concentrations of […] oligomycin (Sigma); 2 μM FCCP (Sigma); 0.5 μM rotenone (Sigma) together with 0.5 μM antimycin A (Sigma). OCR was measured for each well three times, every three min, before and after each injection. OCR was normalized to protein concentration using a BCA Protein Assay kit (ThermoFisher Scientific) conducted according to the manufacturer’s instructions.

CD4+ and CD8+ T cells [2] = experiment: Short-term activation assay, CD25 expression on stimulated T cells; assay type: cell-based, human; conditions: for mean MFI of CD25: 18 h after anti-CD3/CD28 activation + IL-2
Description: as §1

CN(C)c1cc(NC(=O)CNC(C)(C)C)c(O)c2c1C[C@H]1C[C@H]3[C@H](N(C)C)C(O)=C(C(N)=O)C(=O)[C@@]3(O)C(O)=C1C2=O [Tigecycline, tigecycline]
mitochondrial mass (MitoTracker Green) (CD4+ and CD8+ T cells [1]): no significant changes in mitochondrial mass | mitochondrial mass (MitoTracker Green) (CD4+ and CD8+ T cells [1]; listed as tigecyline): comparable mitochondrial mass | mitochondrial mass relative to Unstim (=1), sheet sFig-1E+F (CD4+ and CD8+ T cells [1]; 24H, CD4, Stim-10µM, per PBMC donor): 1.522 and 1.33 and 0.8198 | mitochondrial mass relative to Unstim (=1), sheet sFig-1E+F (CD4+ and CD8+ T cells [1]; 24H, CD4, Unstim-10µM, per PBMC donor): 1.004 and 0.6673 and 1.041 | mitochondrial mass relative to Unstim (=1), sheet sFig-1E+F (CD4+ and CD8+ T cells [1]; 24H, CD8, Unstim-10µM, per PBMC donor): 0.5804 and 1.017 and 1.063 | mitochondrial mass relative to Unstim (=1), sheet sFig-1E+F (CD4+ and CD8+ T cells [1]; 7 days, CD4, STI 24H, per PBMC donor): 2.7235 and 3.361 and 2.725 | mitochondrial mass relative to Unstim (=1), sheet sFig-1E+F (CD4+ and CD8+ T cells [1]; 7 days, CD4, STI 72H, per PBMC donor): 2.708 and 3.517 and 2.769 | mitochondrial mass relative to Unstim (=1), sheet sFig-1E+F (CD4+ and CD8+ T cells [1]; 7 days, CD4, Stim-10µM, per PBMC donor): 2.414 and 2.323 and 2.6393 | mitochondrial mass relative to NO STI (=1), sheet sFig-1E+F (CD4+ and CD8+ T cells [1]; 7 days, CD8, STI-10µM, per PBMC donor): 1.791 and 3.1924 and 2.433 | levels of subunits of complex I (NDUFB8), complex III (UQCRCII) and complex IV (COX2) (OXPHOS complexes): drop | levels of subunits of complex II (SDHB) and complex V (ATP5A) (OXPHOS complexes): less affected | glycolysis rates (PBMCs; 5 uM treatment): trended towards an increase | glycolysis rates (PBMCs; 10 uM treatment): trended towards being decreased | ATP coupled OCR (PBMCs; 5um): 0.02281 pmol/min/Norm. ug protein and -0.09216 pmol/min/Norm. ug protein and -0.102 pmol/min/Norm. ug protein and -0.498 pmol/min/Norm. ug protein | Basal OCR (PBMCs; 5um): -0.181 pmol/min/Norm. ug protein and -0.2066 pmol/min/Norm. ug protein and 0.2924 pmol/min/Norm. ug protein and 0.06036 pmol/min/Norm. ug protein | Maximal OCR (PBMCs; 5um): 0.6209 pmol/min/Norm. ug protein and 0.08625 pmol/min/Norm. ug protein and 0.8496 pmol/min/Norm. ug protein and -0.7482 pmol/min/Norm. ug protein | Spare capacity OCR (PBMCs; 5um): 0.2929 pmol/min/Norm. ug protein and 0.5571 pmol/min/Norm. ug protein and -0.8086 pmol/min/Norm. ug protein | ATP coupled OCR (PBMCs; 10um): -0.2018 pmol/min/Norm. ug protein and -0.1474 pmol/min/Norm. ug protein and -0.3438 pmol/min/Norm. ug protein and 0.00593 pmol/min/Norm. ug protein | Basal OCR (PBMCs; 10um): -0.1538 pmol/min/Norm. ug protein and -0.01961 pmol/min/Norm. ug protein and -0.5181 pmol/min/Norm. ug protein and 0.03583 pmol/min/Norm. ug protein | Maximal OCR (PBMCs; 10um): 0.1774 pmol/min/Norm. ug protein and 0.3784 pmol/min/Norm. ug protein and -0.2836 pmol/min/Norm. ug protein and 0.05421 pmol/min/Norm. ug protein | Spare capacity OCR (PBMCs; 10um): 0.398 pmol/min/Norm. ug protein and 0.2345 pmol/min/Norm. ug protein and 0.01838 pmol/min/Norm. ug protein | glycolysis (ECAR) (PBMCs; stimulated PBMCs, 5 and 10 μM, 6 days): did not observe a major compensatory increase in glycolysis | basal, ATP-coupled, maximal and spare oxygen consumption rates (PBMCs; stimulated PBMCs, 5 and 10 μM, 6 days after stimulation): reduced | mean MFI of CD25 (CD4+ and CD8+ T cells [2]; CD4, 2.5 μM): 3754 and 3553 and 3674 | mean MFI of CD25 (CD4+ and CD8+ T cells [2]; CD4, 5 μM): 3471 and 3450 and 3256 | mean MFI of CD25 (CD4+ and CD8+ T cells [2]; CD4, 10 μM): 3082 and 3057 and 2814 | mean MFI of CD25 (CD4+ and CD8+ T cells [2]; CD8, 2.5 μM): 4522 and 5003 and 6223 | mean MFI of CD25 (CD4+ and CD8+ T cells [2]; CD8, 5 μM): 4093 and 4409 and 4799 | mean MFI of CD25 (CD4+ and CD8+ T cells [2]; CD8, 10 μM): 3582 and 3463 and 3588 | expression of T cell activation marker CD25 (IL2RA) (CD4+ and CD8+ T cells [2]; stimulated CD4+ and CD8+ T cells, 18 h post-priming): reduced expression
